Results taken from patent US20250073210A1, “Use of Ergothioneine for Enhancing Glutathione Level” (priority 2022, published 2025).

Columns and labels:
[1] = test system: total GSH; assay: Example 2: oral L-ergothioneine on plasma glutathione in healthy humans; format: in vivo, human; conditions: Example 2, 200 mg orally once daily, single subject
[2] = test system: total GSH; assay: Example 3: oral L-ergothioneine 5, 15, 30 mg/day on plasma glutathione in healthy humans; format: in vivo, human
Source text: A Baseline will be established looking at Total and Percent Reduced Glutathione. These same values will be measured at the end of the four weeks. Subjects will be contacted once a week while in the study for an assessment of compliance with intervention.
Study Population: Male and female subjects 25-75 years of age Number of Subjects: 5, assigned as follows: 1 subject will receive the GSH administered orally once weekly for 4 weeks; 1 subject will receive S-acetyl-glutathione supplemented orally once daily for 4 weeks; 3 subjects will receive 5, 15, 30 mg L-ergothioneine supplemented orally once daily for 4 weeks, respectively.
• 1. Individuals must be between 25-70 years of age with no known medical conditions that, in the investigator's opinion, may interfere with study participation. • 2. Subjects must present with mild to moderate signs oxidative stress or inflammation. • 3. Willingness to cooperate and participate by following Study requirements. • 4. Individuals must sign informed consent, photo release consent and confidentiality agreement.
• 1. […] Individuals currently taking certain medications or any dietary supplements, which in the opinion of the investigator might interfere with the study. This would include but not be limited to routine high dosage use of anti-inflammatory drugs (aspirin, ibuprofen, corticosteroids) immunosuppressive drugs or antihistamine medications), and insulin, anti-hypertensive drugs, and especially antioxidants. • 3. Individuals with uncontrolled metabolic diseases such as diabetes (Type I and II), hypertension, hyperthyroidism or hypothyroidism, severe chronic asthma, immunological disorders such as HIV positive, AIDS and systemic lupus erythematosus or mastectomy for cancer involving removal of lymph nodes. • 4. Women known to be pregnant, nursing or planning to become pregnant. • 5. Individuals participating in other clinical studies evaluating antioxidants or anti-inflammatory interventions.

[3] = test system: body stores of glutathione; conditions: oral 250 or 1000 mg/day, cited from earlier work

SMILES	% change from baseline in total GSH [1]	Total GSH at Day 30 ([1]; baseline 727 μM)	Total GSH at Day 30 ([2]; Example 3, 200 mg orally once daily, single subject, baseline 733 μM)	Total GSH at Day 30 ([2]; Example 3, second sentence on a single subject with comparator intervention (see doubts))	% change from baseline in total GSH ([2]; Example 3, single subject)	% change from baseline in total GSH ([2]; Example 3, 1400 mg orally once weekly for 4 weeks, single subject, baseline 653 μM)	Natural killer cell cytotoxicity ([3]; at six months)	Oxidized (GSSG) to reduced (GSH) glutathione ratio in whole blood ([3]; at six months)	Body stores of glutathione ([3]; six months, 54 non-smoking adults)
CC(=O)SC[C@H](NC(=O)CC[C@H](N)C(=O)O)C(=O)NCC(=O)O [SAG, S-acetyl-glutathione]	−25%	547 µM	461 µM	503 µM	−37%				
N[C@@H](CCC(=O)N[C@@H](CS)C(=O)NCC(=O)O)C(=O)O [glutathione]						−23%	favorable increases	improvement	significant increases
